One series has as its system THP-1 cells. Nature of the series: MTT cytotoxicity assay. The format is cell-based. Conditions: THP-1 cells, 1, 10 or 100 µM, 18 h. The method, then: THP-1 cells were plated in 96-well plates at a density of 0.08 × 10^6 cells per well. […] Vehicle-treated cells were used as controls. For each treatment, twelve samples were utilized. Cells were washed with PBS and incubated with 100 μL/well of MTT solution (5 mg/mL) for 45 min at 37 °C. After incubation, MTT solution was removed, and DMSO (200 μL) was added to each well. Absorbance was measured at 490 nm on a Molecular Devices SpectraMax M3 plate reader with SoftMax […].2 software (Sunnyvale, CA). Absorbance was compared to that of control cells to determine cytotoxicity.
(Tetrazolium dyes change colour on reduction, which living cells bring about.)

In another series the target is T1, MMP-2 (Homo sapiens, UniProt P08253).
T1 sequence (P08253 110-660): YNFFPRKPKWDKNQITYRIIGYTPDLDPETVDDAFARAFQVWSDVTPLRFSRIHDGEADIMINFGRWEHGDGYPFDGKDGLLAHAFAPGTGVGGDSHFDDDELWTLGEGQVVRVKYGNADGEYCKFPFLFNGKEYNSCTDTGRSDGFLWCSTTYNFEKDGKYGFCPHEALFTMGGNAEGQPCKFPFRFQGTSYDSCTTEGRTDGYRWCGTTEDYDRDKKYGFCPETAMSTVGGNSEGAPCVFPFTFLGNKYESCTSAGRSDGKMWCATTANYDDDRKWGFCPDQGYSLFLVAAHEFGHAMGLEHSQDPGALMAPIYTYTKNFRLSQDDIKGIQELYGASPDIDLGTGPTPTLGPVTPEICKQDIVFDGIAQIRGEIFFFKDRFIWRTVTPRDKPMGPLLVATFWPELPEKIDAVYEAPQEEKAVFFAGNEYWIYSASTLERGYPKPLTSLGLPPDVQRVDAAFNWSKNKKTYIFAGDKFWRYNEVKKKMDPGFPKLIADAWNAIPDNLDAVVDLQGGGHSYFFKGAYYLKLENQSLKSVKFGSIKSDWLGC
Nature of the series: Gelatin zymography of medium of PMA-stimulated THP-1 cells. The format is cell-based. Conditions: 100 µM, 18 h, compared to controls. On the procedure:
THP-1 cells were plated in 12-well plates at a density of 1 × 10^6 cells per well. First, THP-1 were treated with phorbol-12-myristate-13-acetate (PMA) for 24 h to promote the differentiation of cells into macrophages and stimulate MMP secretion. […] For each treatment, biological triplicate samples were utilized. Following treatment, cell medium was collected from each well and centrifuged at 800 × g for 10 min at 4 °C to remove any cell debris. Collected samples were stored at − 80 °C for further analysis. A 10% SDS–polyacrylamide gel containing 0.1% gelatin was loaded with 3 µg of protein from cell medium for gelatin zymography. In parallel, second 10% SDS–polyacrylamide gel was used to assess equal protein loading. In addition, recombinant human MMP-2 and MMP-9 (10 ng each) were loaded as standards (EMD Millipore, Burlington, MA). Gel ran at 60 V until the loading dye reached the bottom of the gel. After the run, the gelatin gel was washed with water for 15 min and incubated in renaturation buffer [2.5% (v/v) Triton X-100 in Milli-Q water] for 60 min at room temperature. The renaturation buffer was replaced with a fresh renaturation buffer at the interval of 30 min. […] Relative activity of MMPs was measured by quantitating band density by ImageJ software and normalized with respective standard.

In the next series the test system is C3H/HeJ mice pups. The series is described as follows: Pregnancy and postnatal outcomes after in utero exposure. Format: in vivo, mouse. From the text: For all animal experiments, C3H/HeJ (10–12 weeks of age, male and female) were purchased from the Jackson Laboratory (Bar Harbor, ME), and were housed in microisolator cages containing autoclaved corncob bedding, and maintained on a 12‐h light‐dark cycle in climate‐controlled laboratory animal facilities approved by the University of Nebraska Medical Center Institutional Animal Care and Use Committee (IACUC). Mice were given free access to irradiated rodent feed (TD. 180,911, Envigo Teklad diet, Madison, WI) and sterile water. Animals were acclimated to the environment for approximately 7–14 days to determine that they were healthy based on observed behavior and weight gain. A female was placed with a male overnight for the purpose of timed matings. The following morning males were removed from the cages and positive vaginal plugs were identified. […] The time of conception was considered to be midnight on the evening of the mating. Treatment of plugged females was started at the morning of the day of plug detection (gestation day (GD) 0.5).
Mice pups at this stage of development (PND 28) are equivalent to humans of 2 years of age. […] Pregnant dams were randomly assigned to DTG or vehicle group. […] Survival rate of pups was 100% between PND 4 and 21 in both groups. Further body weights of pups were measured during preweaning duration. […] Furthermore, between age PND 28 and 34, live animals were evaluated for biochemical changes in the brain by magnetic resonance imaging (MRI) (Fig. 5D–F). All the tests were performed around 6 days post weaning to avoid confounding effect of stress related to separation from mother. Microstructural and metabolite measurements were conducted in live pups using bioimaging methods, diffusion tensor imaging (DTI), and magnetic resonance spectroscopy (^1H MRS), respectively (Fig. 5D–F). First, pups were scanned using DTI to determine microstructural changes in six different brain regions, hippocampus (HI), cortex (CT), striatum (ST), thalamus (TH), hypothalamus (HY), and cerebellum (CE). […] As FA represents anisotropic movement of water molecules along the axons, reduction in FA values indicated axonal and/or myelin damage in developing brain of adolescent pups in the DTG-treated group. […] This allowed evaluation of sex as a biological variant (Supplementary Fig. 4). […] Further, the same pups were scanned using ^1H MRS to measure N-acetylaspartate (NAA), total choline (tCho), and total creatine (tCre) in hippocampus (HI) only (Fig. 5F). NAA is a highly concentrated metabolite in the CNS and is a neuron-specific metabolite that acts as a non-invasive ^1H MRS marker for neuronal integrity, health, and cell number. […] Similar to DTI, sex differences were evaluated in the ^1H MRS study (Supplementary Fig. 5).

The mark [1] stands for this setting: dams 50 mg/kg/day oral through entire gestation.

“Also recorded” adds a separate entry of the source.

As to `C[C@@H]1CCO[C@H]2Cn3cc(C(=O)NCc4ccc(F)cc4F)c(=O)c(O)c3C(=O)N12` [DTG, Dolutegravir], in the series on THP-1 cells, the “Cytotoxicity (cellular viability, MTT)” value was “Cytotoxicity was not observed at any concentration; also recorded: no DTG-induced cytotoxicity”. At MMP-2, the “Relative activity of pro and active forms of MMP-2” value is “significantly decreased”. For the same compound, in the series on C3H/HeJ mice pups (PND 12, in utero exposure), the “Average body weight of pups” value was 5.1 ± 0.4 g. In addition, the “Average body weight of pups” value with C3H/HeJ mice pups (PND 21, in utero exposure) came to 7.5 ± 0.4 g. Besides, in the series on C3H/HeJ mice pups (setting [1]), the “No. of female pups delivered per litter” value worked out at 1.2, the “No. of male pups delivered per litter” value is 2.2, the “No. of pups delivered per litter (average litter size)” value came out at 3.5 and the “male to female ratio per litter” value came to 2.0. In addition, in the series with C3H/HeJ mice pups (in utero exposure), the “% pup survival (PND 4 to PND 21)” value turned out to be 100%, the “% pup survival (birth to PND 4)” value is reported as 92.8% and the “structural malformations or variations in newborn pups” value was “no structural malformations or variations”.
